Results: ChEMBL document CHEMBL5321250, “Polyketide- and Terpenoid-Derived Metabolites Produced by a Marine-Derived Fungus, Peroneutypa sp” (J Nat Prod, 2023)

How the values were obtained:
[1] = Resistance index, ratio of IC50 for antimalarial activity against CQ/SDX/PYR/MQ/CYC resistant Plasmodium falciparum Dd2 to IC50 for antimalarial activity against Plasmodium falciparum 3D7; format: functional
[2] = Resistance index, ratio of IC50 for antimalarial activity against CQ/PYR/ATO resistant Plasmodium falciparum TM90C6B to IC50 for antimalarial activity against Plasmodium falciparum 3D7; format: functional
Plasmodium falciparum [3] = assay: Antimalarial activity against CQ/PYR/ATO resistant Plasmodium falciparum TM90C6B assessed as reduction in parasitemia measured after 72 hrs by SYBR Green I dye based fluorescence assay; format: functional, organism-based
Plasmodium falciparum [4] = assay: Antimalarial activity against MMV848 resistant Plasmodium falciparum 3D7r_MMV848 assessed as reduction in parasitemia measured after 72 hrs by SYBR Green I dye based fluorescence assay; format: functional, organism-based; details: 3D7r_MMV848, 72 h
[5] = Resistance index, ratio of IC50 for antimalarial activity against MMV848 resistant Plasmodium falciparum 3D7r_MMV848 to IC50 for antimalarial activity against Plasmodium falciparum 3D7; format: functional
Plasmodium falciparum [6] = assay: Antimalarial activity against Plasmodium falciparum 3D7 assessed as reduction in parasitemia measured after 72 hrs by SYBR Green I dye based fluorescence assay; format: functional, organism-based; details: 3D7, 72 h
Plasmodium falciparum [7] = assay: Antimalarial activity against CQ/SDX/PYR/MQ/CYC resistant Plasmodium falciparum Dd2 assessed as reduction in parasitemia measured after 72 hrs by SYBR Green I dye based fluorescence assay; format: functional, organism-based; details: Dd2, 72 h
[8] = Cytotoxicity against human HepG2 cells assessed as inhibition of cell growth incubated for 72 hrs by MTT assay; format: toxicity, cell-based

O=c1occ(-c2ccc(O)cc2)c2cc(O)ccc12
Ratio IC50 [1]: 1.9 | Ratio IC50 [2]: 1 | IC50 (Plasmodium falciparum [3]): 19 µM | IC50 (Plasmodium falciparum [4]): 23 µM | Ratio IC50 [5]: 1.2 | IC50 (Plasmodium falciparum [6]): 19 µM | IC50 (Plasmodium falciparum [7]): 37 µM | IC50 at 72 h [8]: > 100 µM

C[C@@H]1CC[C@H]2[C@@H](C)C(=O)O[C@@H]3O[C@@]4(C)CC[C@@H]1[C@]32OO4 [ARTEMISININ]
Ratio IC50 [1]: 2 | Ratio IC50 [2]: 1 | IC50 (Plasmodium falciparum [4]): 0.013 µM | Ratio IC50 [5]: 2 | IC50 (Plasmodium falciparum [6]): 0.006 µM | IC50 (Plasmodium falciparum [7]): 0.011 µM

CC(C)c1c(C(=O)Nc2ccccc2)c(-c2ccccc2)c(-c2ccc(F)cc2)n1CC[C@@H](O)C[C@@H](O)CC(=O)O [ATORVASTATIN]
Ratio IC50 [2]: > 1430 | IC50 (Plasmodium falciparum [3]): > 1 µM

CCc1nc(N)nc(N)c1-c1ccc(Cl)cc1 [PYRIMETHAMINE]
Ratio IC50 [1]: > 166 | IC50 (Plasmodium falciparum [6]): 0.06 µM | IC50 (Plasmodium falciparum [7]): > 10 µM
